Where two headings read alike, the source gives them in different places.
Legend:
ABL = settings: read-out: Live Cell IC50 Phospho Elisa; ref Cui et al., 2011; cited from earlier work
178 full-length kinases [1] = biological target: 178 full-length kinases (Homo sapiens, UniProt Q13705); experiment: NanoBRET single-dose fractional occupancy profiling of kinase/Nluc library in live HEK293 cells (Table S1); type: binding; parameters: receptor occupancy: dose or concentration left out as unconfirmed; Occupancy, % Replicate 1 / Occupancy, % Replicate 2: unit of the concentration uncertain; settings: ACVR2B, Nluc C, probe 2 at 1 (unit uncertain)
178 full-length kinases [2] = biological target: 178 full-length kinases (Homo sapiens, UniProt Q9Y463); experiment: as above; type: binding; parameters: receptor occupancy: dose or concentration left out as unconfirmed; Occupancy, % Replicate 1 / Occupancy, % Replicate 2: unit of the concentration uncertain; settings: DYRK1B, Nluc N, probe 5 at 1 (unit uncertain)
Chain of 178 full-length kinases (Homo sapiens, UniProt Q9Y463) (Q9Y463 whole entry): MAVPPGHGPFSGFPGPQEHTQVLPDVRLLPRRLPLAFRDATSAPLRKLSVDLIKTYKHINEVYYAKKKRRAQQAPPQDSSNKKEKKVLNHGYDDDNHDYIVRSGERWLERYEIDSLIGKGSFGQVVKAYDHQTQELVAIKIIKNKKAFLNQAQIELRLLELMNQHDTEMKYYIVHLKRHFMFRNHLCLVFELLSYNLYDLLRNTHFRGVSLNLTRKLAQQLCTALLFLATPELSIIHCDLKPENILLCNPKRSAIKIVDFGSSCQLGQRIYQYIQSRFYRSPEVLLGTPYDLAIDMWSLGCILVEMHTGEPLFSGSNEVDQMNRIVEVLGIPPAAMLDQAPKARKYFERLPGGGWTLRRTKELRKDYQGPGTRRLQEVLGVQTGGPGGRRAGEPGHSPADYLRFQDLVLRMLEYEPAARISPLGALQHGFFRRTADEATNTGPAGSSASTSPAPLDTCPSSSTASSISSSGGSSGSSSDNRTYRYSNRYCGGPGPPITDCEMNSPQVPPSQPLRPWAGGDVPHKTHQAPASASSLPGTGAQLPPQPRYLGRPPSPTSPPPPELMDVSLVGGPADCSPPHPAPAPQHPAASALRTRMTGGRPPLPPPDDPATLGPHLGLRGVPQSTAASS

178 full-length kinases [3] = biological target: 178 full-length kinases (Homo sapiens, UniProt P09769); experiment: as above; type: binding; parameters: receptor occupancy: dose or concentration left out as unconfirmed; Occupancy, % Replicate 1 / Occupancy, % Replicate 2: unit of the concentration uncertain; settings: FGR, Nluc N, probe 6 at 0.5 (unit uncertain)
178 full-length kinases [4] = biological target: 178 full-length kinases (Homo sapiens, UniProt Q9Y2K2); experiment: as above; type: binding; parameters: receptor occupancy: dose or concentration left out as unconfirmed; Occupancy, % Replicate 1 / Occupancy, % Replicate 2: unit of the concentration uncertain; settings: SIK3 (NP_079440), Nluc orientation N, probe 6 at 1 (unit uncertain)
Chain of 178 full-length kinases (Homo sapiens, UniProt Q9Y2K2) (Q9Y2K2 whole entry): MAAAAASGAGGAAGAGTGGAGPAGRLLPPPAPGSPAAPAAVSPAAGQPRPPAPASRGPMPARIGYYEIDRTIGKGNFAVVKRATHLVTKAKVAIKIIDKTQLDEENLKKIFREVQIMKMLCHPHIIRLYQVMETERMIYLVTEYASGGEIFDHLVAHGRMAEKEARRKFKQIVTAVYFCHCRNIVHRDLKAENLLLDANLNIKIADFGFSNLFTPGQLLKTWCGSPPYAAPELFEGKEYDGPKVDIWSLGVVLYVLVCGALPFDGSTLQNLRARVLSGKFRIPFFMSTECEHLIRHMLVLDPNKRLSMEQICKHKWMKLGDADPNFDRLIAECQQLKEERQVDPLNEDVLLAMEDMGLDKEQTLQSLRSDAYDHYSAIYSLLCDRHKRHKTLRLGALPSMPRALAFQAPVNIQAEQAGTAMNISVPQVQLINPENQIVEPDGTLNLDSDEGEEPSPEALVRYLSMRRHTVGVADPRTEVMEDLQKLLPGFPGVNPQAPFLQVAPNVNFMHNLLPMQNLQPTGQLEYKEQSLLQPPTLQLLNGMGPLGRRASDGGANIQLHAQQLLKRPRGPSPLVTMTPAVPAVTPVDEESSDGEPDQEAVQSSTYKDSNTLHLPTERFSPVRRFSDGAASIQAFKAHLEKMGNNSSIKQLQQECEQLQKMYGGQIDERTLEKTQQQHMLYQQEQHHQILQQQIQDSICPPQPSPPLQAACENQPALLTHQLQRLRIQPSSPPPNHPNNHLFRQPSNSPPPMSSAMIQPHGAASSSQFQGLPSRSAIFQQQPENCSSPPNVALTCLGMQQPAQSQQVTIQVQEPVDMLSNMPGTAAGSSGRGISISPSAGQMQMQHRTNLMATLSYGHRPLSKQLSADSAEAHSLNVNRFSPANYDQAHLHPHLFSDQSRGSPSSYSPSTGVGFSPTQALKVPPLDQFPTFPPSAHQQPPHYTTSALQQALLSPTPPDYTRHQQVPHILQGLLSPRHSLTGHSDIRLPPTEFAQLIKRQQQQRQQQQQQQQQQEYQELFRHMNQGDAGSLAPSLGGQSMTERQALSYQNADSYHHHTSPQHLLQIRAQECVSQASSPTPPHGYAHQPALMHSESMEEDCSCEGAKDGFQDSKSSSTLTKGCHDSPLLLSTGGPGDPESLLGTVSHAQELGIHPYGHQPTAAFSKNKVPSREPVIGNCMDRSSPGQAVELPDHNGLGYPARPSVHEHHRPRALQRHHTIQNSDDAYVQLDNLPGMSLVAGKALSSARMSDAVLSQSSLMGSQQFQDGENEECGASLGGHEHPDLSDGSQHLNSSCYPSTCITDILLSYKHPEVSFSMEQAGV

178 full-length kinases [5] = biological target: 178 full-length kinases (Homo sapiens, UniProt Q9P286); experiment: as above; type: binding; parameters: receptor occupancy: dose or concentration left out as unconfirmed; Occupancy, % Replicate 1 / Occupancy, % Replicate 2: unit of the concentration uncertain; settings: PAK7, Nluc C, probe 5 at 1 (unit uncertain)
Chain of 178 full-length kinases (Homo sapiens, UniProt Q9P286) (Q9P286 whole entry): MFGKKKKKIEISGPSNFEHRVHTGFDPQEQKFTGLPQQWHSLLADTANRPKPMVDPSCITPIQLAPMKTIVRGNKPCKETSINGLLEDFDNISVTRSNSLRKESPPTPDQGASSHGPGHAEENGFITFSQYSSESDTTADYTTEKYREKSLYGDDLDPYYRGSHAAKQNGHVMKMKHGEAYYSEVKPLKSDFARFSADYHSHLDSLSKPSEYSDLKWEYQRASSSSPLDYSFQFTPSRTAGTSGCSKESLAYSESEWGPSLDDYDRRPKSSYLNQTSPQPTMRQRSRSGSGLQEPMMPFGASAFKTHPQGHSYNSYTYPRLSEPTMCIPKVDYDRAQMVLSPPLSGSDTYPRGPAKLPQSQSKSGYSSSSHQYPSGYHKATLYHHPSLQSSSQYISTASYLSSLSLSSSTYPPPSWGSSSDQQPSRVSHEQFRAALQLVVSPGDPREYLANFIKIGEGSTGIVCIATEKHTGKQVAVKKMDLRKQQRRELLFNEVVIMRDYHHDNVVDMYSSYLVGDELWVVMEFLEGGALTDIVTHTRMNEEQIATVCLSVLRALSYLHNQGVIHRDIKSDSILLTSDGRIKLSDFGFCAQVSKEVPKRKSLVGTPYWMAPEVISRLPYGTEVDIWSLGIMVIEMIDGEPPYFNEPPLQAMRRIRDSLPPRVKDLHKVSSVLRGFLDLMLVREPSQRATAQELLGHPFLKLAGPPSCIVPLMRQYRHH

178 full-length kinases [6] = biological target: 178 full-length kinases (Homo sapiens, UniProt P78368); experiment: as above; type: binding; parameters: receptor occupancy: dose or concentration left out as unconfirmed; Occupancy, % Replicate 1 / Occupancy, % Replicate 2: unit of the concentration uncertain; settings: CSNK1G2, Nluc N, probe 5 at 1 (unit uncertain)
Chain of 178 full-length kinases (Homo sapiens, UniProt P78368) (P78368 whole entry): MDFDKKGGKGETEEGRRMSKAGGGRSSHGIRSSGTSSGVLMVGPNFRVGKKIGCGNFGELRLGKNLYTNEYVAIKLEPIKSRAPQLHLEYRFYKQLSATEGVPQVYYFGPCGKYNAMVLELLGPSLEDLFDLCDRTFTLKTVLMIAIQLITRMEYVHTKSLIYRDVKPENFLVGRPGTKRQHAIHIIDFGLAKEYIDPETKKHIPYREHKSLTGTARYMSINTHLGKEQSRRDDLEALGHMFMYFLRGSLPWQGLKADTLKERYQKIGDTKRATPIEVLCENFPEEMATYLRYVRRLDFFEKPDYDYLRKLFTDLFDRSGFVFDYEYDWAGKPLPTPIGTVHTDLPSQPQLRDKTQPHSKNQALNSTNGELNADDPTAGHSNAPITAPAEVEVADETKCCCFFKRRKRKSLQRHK

178 full-length kinases [7] = biological target: 178 full-length kinases (Homo sapiens, UniProt Q7KZI7); experiment: as above; type: binding; parameters: receptor occupancy: dose or concentration left out as unconfirmed; Occupancy, % Replicate 1 / Occupancy, % Replicate 2: unit of the concentration uncertain; settings: MARK2, Nluc N, probe 5 at 1 (unit uncertain)
178 full-length kinases [8] = biological target: 178 full-length kinases (Homo sapiens, UniProt O76039); experiment: as above; type: binding; parameters: receptor occupancy: dose or concentration left out as unconfirmed; Occupancy, % Replicate 1 / Occupancy, % Replicate 2: unit of the concentration uncertain; settings: CDKL5, Nluc N, probe 5 at 1 (unit uncertain)
Chain of 178 full-length kinases (Homo sapiens, UniProt O76039) (O76039 whole entry): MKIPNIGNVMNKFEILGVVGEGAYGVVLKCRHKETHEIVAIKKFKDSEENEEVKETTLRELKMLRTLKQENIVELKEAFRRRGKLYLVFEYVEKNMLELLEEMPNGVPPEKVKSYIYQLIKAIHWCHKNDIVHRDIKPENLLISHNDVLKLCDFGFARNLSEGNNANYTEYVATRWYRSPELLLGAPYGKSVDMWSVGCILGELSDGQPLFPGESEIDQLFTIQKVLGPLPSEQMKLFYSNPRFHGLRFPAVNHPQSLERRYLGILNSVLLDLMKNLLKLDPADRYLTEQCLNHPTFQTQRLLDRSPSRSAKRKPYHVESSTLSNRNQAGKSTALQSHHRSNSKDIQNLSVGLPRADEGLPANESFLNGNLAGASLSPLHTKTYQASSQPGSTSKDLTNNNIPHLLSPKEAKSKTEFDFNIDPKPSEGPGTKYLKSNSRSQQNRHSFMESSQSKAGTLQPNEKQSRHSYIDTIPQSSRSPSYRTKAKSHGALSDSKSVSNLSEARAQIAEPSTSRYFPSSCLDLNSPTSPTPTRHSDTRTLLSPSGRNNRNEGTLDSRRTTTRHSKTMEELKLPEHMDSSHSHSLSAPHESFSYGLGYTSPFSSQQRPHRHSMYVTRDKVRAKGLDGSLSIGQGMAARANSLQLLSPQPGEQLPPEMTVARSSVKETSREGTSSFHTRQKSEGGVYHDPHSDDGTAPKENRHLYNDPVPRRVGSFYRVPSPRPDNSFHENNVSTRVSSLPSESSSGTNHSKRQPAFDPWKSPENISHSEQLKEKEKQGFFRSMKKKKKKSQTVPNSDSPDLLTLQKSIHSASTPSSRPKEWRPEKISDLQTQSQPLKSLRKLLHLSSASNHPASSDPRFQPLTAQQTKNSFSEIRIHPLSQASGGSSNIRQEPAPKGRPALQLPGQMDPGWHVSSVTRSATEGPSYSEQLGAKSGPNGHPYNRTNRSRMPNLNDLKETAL

178 full-length kinases [9] = biological target: 178 full-length kinases (Homo sapiens, UniProt Q15349); experiment: as above; type: binding; parameters: receptor occupancy: dose or concentration left out as unconfirmed; Occupancy, % Replicate 1 / Occupancy, % Replicate 2: unit of the concentration uncertain; settings: RPS6KA2 (NP_001305865), Nluc orientation N, probe 5 at 0.5 (unit uncertain)
178 full-length kinases [10] = biological target: 178 full-length kinases (Homo sapiens, UniProt Q5S007); experiment: as above; type: binding; parameters: receptor occupancy: dose or concentration left out as unconfirmed; Occupancy, % Replicate 1 / Occupancy, % Replicate 2: unit of the concentration uncertain; settings: LRRK2, Nluc C
178 full-length kinases [11] = biological target: 178 full-length kinases (Homo sapiens, UniProt Q8WU08); experiment: as above; type: binding; parameters: receptor occupancy: dose or concentration left out as unconfirmed; Occupancy, % Replicate 1 / Occupancy, % Replicate 2: unit of the concentration uncertain; settings: STK32A (NP_001106195), Nluc orientation N, probe 5 at 1 (unit uncertain); replicate 2
178 full-length kinases [12] = biological target: 178 full-length kinases (Homo sapiens, UniProt P17612); experiment: as above; type: binding; parameters: receptor occupancy: dose or concentration left out as unconfirmed; Occupancy, % Replicate 1 / Occupancy, % Replicate 2: unit of the concentration uncertain; settings: PRKACA, Nluc C, probe 5 at 1 (unit uncertain)
178 full-length kinases [13] = biological target: 178 full-length kinases (Homo sapiens, UniProt P51955); experiment: as above; type: binding; parameters: receptor occupancy: dose or concentration left out as unconfirmed; Occupancy, % Replicate 1 / Occupancy, % Replicate 2: unit of the concentration uncertain; settings: NEK2, Nluc N, probe 5 at 1 (unit uncertain)
178 full-length kinases [14] = biological target: 178 full-length kinases (Homo sapiens, UniProt Q8TD19); experiment: as above; type: binding; parameters: receptor occupancy: dose or concentration left out as unconfirmed; Occupancy, % Replicate 1 / Occupancy, % Replicate 2: unit of the concentration uncertain; settings: NEK9, Nluc N, probe 5 at 1 (unit uncertain)
178 full-length kinases [15] = biological target: 178 full-length kinases (Homo sapiens, UniProt P42681); experiment: as above; type: binding; parameters: receptor occupancy: dose or concentration left out as unconfirmed; Occupancy, % Replicate 1 / Occupancy, % Replicate 2: unit of the concentration uncertain; settings: TXK (NP_003319), Nluc orientation C, probe 6 at 0.1 (unit uncertain)
Chain of 178 full-length kinases (Homo sapiens, UniProt P42681) (P42681 whole entry): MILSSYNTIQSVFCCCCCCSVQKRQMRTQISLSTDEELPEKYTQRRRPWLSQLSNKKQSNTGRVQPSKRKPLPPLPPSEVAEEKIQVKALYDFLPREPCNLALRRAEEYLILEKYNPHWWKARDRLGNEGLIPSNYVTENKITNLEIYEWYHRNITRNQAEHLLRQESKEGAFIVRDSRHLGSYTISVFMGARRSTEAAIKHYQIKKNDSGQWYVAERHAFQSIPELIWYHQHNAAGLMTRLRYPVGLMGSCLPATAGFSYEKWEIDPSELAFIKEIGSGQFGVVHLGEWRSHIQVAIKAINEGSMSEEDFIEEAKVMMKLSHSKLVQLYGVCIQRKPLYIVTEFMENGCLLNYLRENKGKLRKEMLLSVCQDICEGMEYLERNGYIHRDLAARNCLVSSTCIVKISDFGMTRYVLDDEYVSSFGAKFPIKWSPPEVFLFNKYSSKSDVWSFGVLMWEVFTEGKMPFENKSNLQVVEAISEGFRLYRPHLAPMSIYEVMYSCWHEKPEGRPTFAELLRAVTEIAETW

178 full-length kinases [16] = biological target: 178 full-length kinases (Homo sapiens, UniProt Q8IYT8); experiment: as above; type: binding; parameters: receptor occupancy: dose or concentration left out as unconfirmed; Occupancy, % Replicate 1 / Occupancy, % Replicate 2: unit of the concentration uncertain; settings: ULK2 (NP_001136082), Nluc orientation N, probe 5 at 1 (unit uncertain)
178 full-length kinases [17] = biological target: 178 full-length kinases (Homo sapiens, UniProt P31751); experiment: as above; type: binding; parameters: receptor occupancy: dose or concentration left out as unconfirmed; Occupancy, % Replicate 1 / Occupancy, % Replicate 2: unit of the concentration uncertain; settings: AKT2, Nluc C, probe 5 at 1 (unit uncertain)
Chain of 178 full-length kinases (Homo sapiens, UniProt P31751) (P31751 whole entry): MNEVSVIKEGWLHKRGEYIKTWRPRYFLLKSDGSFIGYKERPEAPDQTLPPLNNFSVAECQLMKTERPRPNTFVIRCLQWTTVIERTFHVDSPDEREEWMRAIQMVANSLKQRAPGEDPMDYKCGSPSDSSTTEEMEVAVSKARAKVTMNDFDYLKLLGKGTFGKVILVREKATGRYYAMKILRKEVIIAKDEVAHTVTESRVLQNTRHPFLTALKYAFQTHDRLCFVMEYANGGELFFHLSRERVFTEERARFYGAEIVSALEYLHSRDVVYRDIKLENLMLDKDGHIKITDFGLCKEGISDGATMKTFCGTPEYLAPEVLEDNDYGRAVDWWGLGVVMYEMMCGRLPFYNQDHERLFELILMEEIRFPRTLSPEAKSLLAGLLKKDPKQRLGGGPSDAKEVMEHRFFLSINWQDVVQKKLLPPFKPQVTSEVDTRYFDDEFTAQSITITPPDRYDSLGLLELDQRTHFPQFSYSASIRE

178 full-length kinases [18] = biological target: 178 full-length kinases (Homo sapiens, UniProt Q9H0K1); experiment: as above; type: binding; parameters: receptor occupancy: dose or concentration left out as unconfirmed; Occupancy, % Replicate 1 / Occupancy, % Replicate 2: unit of the concentration uncertain; settings: SNF1LK2 (NP_056006), Nluc orientation N, probe 6 at 0.1 (unit uncertain)

C[C@@H](Oc1cc(-c2cnn(C3CCNCC3)c2)cnc1N)c1c(Cl)ccc(F)c1Cl [Crizotinib]
IC50 (ABL): […] | Occupancy, % Replicate 1 (178 full-length kinases [1]): No Binding | Occupancy, % Replicate 1 (178 full-length kinases [2]): No Binding | Occupancy, % Replicate 2 (178 full-length kinases [2]): No Binding | Occupancy, % Replicate 2 (178 full-length kinases [3]): No Binding | Occupancy, % Replicate 1 (178 full-length kinases [4]; replicate 1): No Binding | Occupancy, % Replicate 2 (178 full-length kinases [4]; replicate 2): No Binding | Occupancy, % Replicate 1 (178 full-length kinases [5]): No Binding | Occupancy, % Replicate 2 (178 full-length kinases [5]): No Binding | Occupancy, % Replicate 2 (178 full-length kinases [6]): No Binding | Occupancy, % Replicate 2 (178 full-length kinases [7]): No Binding | Occupancy, % Replicate 1 (178 full-length kinases [8]): No Binding | Occupancy, % Replicate 2 (178 full-length kinases [8]): No Binding | Occupancy, % Replicate 1 (178 full-length kinases [9]; replicate 1): No Binding | Occupancy, % Replicate 2 (178 full-length kinases [9]; replicate 2): No Binding | receptor occupancy (178 full-length kinases [10]; read-out: Occupancy, % Replicate 1): 14% | receptor occupancy (178 full-length kinases [10]; read-out: Occupancy, % Replicate 2): 31% | Occupancy, % Replicate 2 (178 full-length kinases [11]): No Binding | Occupancy, % Replicate 1 (178 full-length kinases [12]): No Binding | Occupancy, % Replicate 2 (178 full-length kinases [12]): No Binding | Occupancy, % Replicate 1 (178 full-length kinases [13]): No Binding | Occupancy, % Replicate 1 (178 full-length kinases [14]): No Binding | Occupancy, % Replicate 1 (178 full-length kinases [15]; replicate 1): No Binding | Occupancy, % Replicate 2 (178 full-length kinases [15]; replicate 2): No Binding | Occupancy, % Replicate 1 (178 full-length kinases [16]; replicate 1): No Binding | Occupancy, % Replicate 2 (178 full-length kinases [16]; replicate 2): No Binding | Occupancy, % Replicate 1 (178 full-length kinases [17]): No Binding | Occupancy, % Replicate 2 (178 full-length kinases [17]): No Binding | Occupancy, % Replicate 1 (178 full-length kinases [18]; replicate 1): No Binding | Occupancy, % Replicate 2 (178 full-length kinases [18]; replicate 2): No Binding

Reference: PMC5814754, “Quantitative, Wide-Spectrum Kinase Profiling in Live Cells for Assessing the Effect of Cellular ATP on Target Engagement” (Cell Chemical Biology, 2018)
